The values below come from patent US20020065326A1, “Patient oxygenation using stabilized fluorocarbon emulsions” (priority 1992, published 2002).

Where two headings read alike, the source gives them in different places. Marks after values point to notes of the source that are not given here.

Data set [1] is described as follows: Critical solution temperature (CST) versus hexane. In kind it is physicochemical. As for the experimental part:
Critical solution temperature for fluorocarbon liquids was measured in the following manner: Equivolume mixtures of the test fluorocarbon and hydrocarbon (e.g., hexane) are placed in a sealed vial and submerged in a temperature controlled water bath. Samples are cooled until two distinct phases are present. At this point, the temperature is increased slowly. The lowest temperature at which the two phases are completely miscible (i.e., a single liquid phase) is defined as the CST.
For comparison purposes, all CST temperatures used in this patent are reported versus hexane. It is often not possible, however, to measure the CST for lipophilic fluorocarbons versus hexane, since the CSTs for these substances are very low. Thus, the CST for lipophilic substances is often measured in longer chain length hydrocarbons, and the value versus hexane is determined via extrapolation of linear plots of CST vs. alkane chain length.

A short description of data set [2]: in vivo. The source says: Traditionally, the molecular weight region from 460-550 g/mol has been considered optimal for blood substitute applications. The lower cutoff is related to the formation of gas emboli for fluorocarbons with vapor pressures greater than 20 torr. The upper cutoff is limited to compounds with organ retention times of less than 3 weeks.
The lower limit is defined by fluorocarbons with vapor pressures greater than 20 torr which causes gas emboli, while the upper limit is defined by fluorocarbons with organ retention times of less than 3 weeks.

The conditions of data set [3]: critical solution temperature vs hexane; prior art minor components discussed in literature; cited from earlier work.
The conditions of data set [4]: cited from earlier work; for t½: organ retention half life, prior art / nonlipophilic fluorocarbons from literature.
[5] abbreviates: vs hexane, estimated from extrapolations of linear plots of CST vs. hydrocarbon chain length.

In turn, `FC1(F)C(F)(F)C(F)(F)C2(F)C(F)(F)C(F)(F)C(F)(F)C(F)(F)C2(F)C1(F)F` (stereo not drawn) [F-decalin, perfluorodecalin] came in with a CSTH in data set [1] (critical solution temperature vs hexane, Present Study) of 22 C. Besides, in data set [2] (t½), the half-life was 7 days.

On to `FC(F)(F)C(F)(F)C(F)(F)C(F)(F)C(F)(F)C(F)(F)C(F)(F)C(F)(F)C(F)(F)C(F)(F)Br` [F-decyl bromide, perfluorodecyl bromide], for which the “critical solution temperature compared with prior art stabilizers (in words)” value in data set [1] (vs hexane, at comparable molecular weight) was “dramatically lower”. Moreover, the CSTH result in data set [1] (setting [5]) is recorded as “(19)^a C”. Besides, in data set [2], the “organ half-life versus prescribed cutoff” value is on record as “less than 3 week”, the “organ retention time compared with that predicted from the molecular weight” value is “less than be predicted from the molecular weight” and the “t½ (calculated half life in vivo in organs of the RES)” value is listed as “(18) days”. Besides, the half-life in data set [2] (t½ (calculated half life in vivo in organs of the RES)) was approximately 18 days.

For `FC1(F)OC(F)(F)C(F)(F)N(C(F)(F)C(F)(F)N2C(F)(F)C(F)(F)OC(F)(F)C2(F)F)C1(F)F` [F-dimorpholinoethane], the CSTH in data set [3] was 38 C. Also, the t½ in data set [4] is 24 days.

As to `FC1(F)OC(F)(F)C(F)(F)N(C(F)(F)C(F)(F)C(F)(F)C(F)(F)C(F)(F)N2C(F)(F)C(F)(F)OC(F)(F)C2(F)F)C1(F)F` [F-dimorpholinopentane], in data set [3], the CSTH is given as 60 C. Also, the t½ in data set [4] was 280 days.

Regarding `FC1(F)OC(F)(F)C(F)(F)N(C(F)(F)C(F)(F)C(F)(F)N2C(F)(F)C(F)(F)OC(F)(F)C2(F)F)C1(F)F` [F-dimorpholinopropane], the CSTH in data set [3] is recorded as 45 C. For the same compound, the t½ in data set [4] is 50 days.

For the compound `FC(F)(F)C(F)(F)C(F)(F)C(F)(F)C(F)(F)C(F)(F)Br` [F-hexyl bromide, 1-bromotridecafluorohexane], in data set [2] (in vivo), the half-life is 2 days.

`FC(F)(F)C(F)(F)C(F)(F)C(F)(F)C(F)(F)C(F)(F)C(F)(F)C(F)(F)Br` [F-octyl bromide, perfluorooctyl bromide]: the CSTH result in data set [1] (setting [5]) is on record as “(−19)^a C”. The “organ retention time compared with that predicted from the molecular weight” value in data set [2] is given as “less than be predicted from the molecular weight”. In data set [2] (t½), this compound had a half-life of 4 days. Further, in data set [4] (used to scale FIG. 6 values), the “ratio of half-lives for PFOB/FDC” value was 4/7.

With `FC1(F)C(F)(F)C(F)(F)C2(F)C(F)(C1(F)F)C(F)(F)C(F)(F)C1(F)C(F)(F)C(F)(F)C(F)(F)C(F)(F)C12F` (stereo not drawn) [F-perhydrophenanthrene], the CSTH in data set [3] was 48 C.

Take `FC1(F)OC(F)(F)C(F)(F)N(C2(F)C(F)(F)C(F)(F)C(F)(F)C(F)(F)C2(F)F)C1(F)F` [F—N-cyclohexylmorpholine]: in data set [3], the CSTH is on record as 31 C. The t½ in data set [4] is listed as 13 days.

Regarding F-dip;peridinopropane, the CSTH in data set [3] is reported as 56 C. The t½ in data set [4] was 282 days.

For the compound F-dipipendine, the CSTH in data set [3] is 36 C.

On to F-dipiperidinobutane, for which the CSTH in data set [3] is listed as 72 C. For the same compound, in data set [4], the t½ was 1460 days.

Consider F-dipiperidinoethane, for which the CSTH in data set [3] is on record as 49 C. The t½ in data set [4] is 124 days.

In the case of F-dipiperidinomethane, the CSTH in data set [3] was 42 C. Further, the t½ in data set [4] is 55 days.

For F—N-methylcyclohexylpiperidine, the CSTH in data set [3] is 40 C. Moreover, the t½ in data set [4] was 60 days.

Usually half-life stands for how long it takes for the measured level to halve. By t½ is commonly meant how long it takes for the measured level to halve.
